From patent US6660755B2, “Substituted diaryl or diheteroaryl methans, ethers and amines having retinoid agonist, antagonist or inverse agonist type biological activity” (Allergan, Inc., priority 1997, dated 2003) come the findings set out here.

One assay addresses T1, RARα (Homo sapiens, UniProt P10276).
T1 sequence (P10276 1-462): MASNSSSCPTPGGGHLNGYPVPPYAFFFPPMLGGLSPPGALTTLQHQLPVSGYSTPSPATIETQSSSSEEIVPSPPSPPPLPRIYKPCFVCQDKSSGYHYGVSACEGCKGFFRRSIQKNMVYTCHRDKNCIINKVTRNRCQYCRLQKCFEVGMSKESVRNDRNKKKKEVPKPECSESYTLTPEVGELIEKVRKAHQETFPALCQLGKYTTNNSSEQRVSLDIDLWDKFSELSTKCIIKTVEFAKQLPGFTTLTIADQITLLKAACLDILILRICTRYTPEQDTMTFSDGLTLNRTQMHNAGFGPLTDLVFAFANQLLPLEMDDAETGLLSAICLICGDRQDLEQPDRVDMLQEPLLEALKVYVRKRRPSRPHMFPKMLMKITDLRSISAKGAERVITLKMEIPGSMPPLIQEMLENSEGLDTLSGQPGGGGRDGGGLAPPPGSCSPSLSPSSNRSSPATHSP
Kind of assay: Ligand binding assay, RARα. An excerpt:
(§1) A holoreceptor transactivation assay and a ligand binding assay which measure the antagonist/agonist like activity of the compounds of the invention, or their ability to bind to the several retinoid receptor subtypes, respectively, are described in published PCT Application No. WO WO93/11755 (particularly on pages 30-33 and 37-41) published on Jun. 24, 1993, the specification of which is also incorporated herein by reference. A detailed experimental procedure for holoreceptor transactivations has been described by Heyman et al. Cell 1992, 68, 397-406; Allegretto et al. J. Biol. Chem. 1993 268, 26625-26633, and Mangelsdorf et al. The Retinoids: Biology, Chemistry and Medicine, pp 319-349, Raven Press Ltd., New York, which are expressly incorporated herein by reference. The results obtained in this assay are expressed in EC50 numbers, as they are also in the chimeric receptor transactivation assay. The results of ligand binding assay are expressed in Kd numbers. (See Cheng et al. Biochemical Pharmacology 22, 3099-3108, expressly incorporated herein by reference.) Still another transactivation assay, the “PGR assay” is described in the publication Klein et al. J. Biol. Chem. 1996, 271, 22692-22696, which is expressly incorporated herein by reference, and a detailed description is also provided below. The results of the PGR assay are also expressed in EC50 numbers (nanomolar concentration).

A further assay addresses T2, RARβ (Homo sapiens, UniProt P10826).
T2 sequence (P10826 1-455): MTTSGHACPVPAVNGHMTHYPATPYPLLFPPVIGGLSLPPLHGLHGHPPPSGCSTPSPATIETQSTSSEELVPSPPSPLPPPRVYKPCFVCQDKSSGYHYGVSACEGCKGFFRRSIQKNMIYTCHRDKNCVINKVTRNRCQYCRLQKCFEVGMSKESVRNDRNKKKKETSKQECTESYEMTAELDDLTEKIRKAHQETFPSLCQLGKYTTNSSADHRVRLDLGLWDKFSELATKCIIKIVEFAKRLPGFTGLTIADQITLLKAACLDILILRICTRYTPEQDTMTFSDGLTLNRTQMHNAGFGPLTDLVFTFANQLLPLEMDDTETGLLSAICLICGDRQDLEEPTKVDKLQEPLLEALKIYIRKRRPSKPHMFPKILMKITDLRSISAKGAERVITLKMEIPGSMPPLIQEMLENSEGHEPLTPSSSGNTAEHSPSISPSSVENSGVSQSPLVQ
Kind of assay: Ligand binding assay, RARβ. Particulars: read-out: Kd RABβ.
Source text: as §1

A further assay addresses T3, RARγ (Homo sapiens, UniProt P13631).
T3 sequence (P13631 1-454): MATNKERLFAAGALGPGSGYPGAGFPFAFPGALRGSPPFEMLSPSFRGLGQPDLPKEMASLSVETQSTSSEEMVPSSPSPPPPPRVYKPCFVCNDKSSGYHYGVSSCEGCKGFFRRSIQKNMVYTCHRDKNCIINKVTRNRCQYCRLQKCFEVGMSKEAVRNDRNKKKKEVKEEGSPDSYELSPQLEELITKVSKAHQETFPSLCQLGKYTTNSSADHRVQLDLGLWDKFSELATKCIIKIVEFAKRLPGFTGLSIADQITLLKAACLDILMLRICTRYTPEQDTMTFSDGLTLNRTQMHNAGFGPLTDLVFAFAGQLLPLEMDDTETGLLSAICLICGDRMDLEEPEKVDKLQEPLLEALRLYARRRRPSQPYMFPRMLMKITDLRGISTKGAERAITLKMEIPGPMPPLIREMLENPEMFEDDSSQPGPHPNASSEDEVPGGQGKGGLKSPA
Kind of assay: Ligand binding assay, RARγ.
Source text: as §1

Turning to `CC(C)(C)c1ccc(C#Cc2ccc(C(=O)O)cc2)cc1Oc1ccc(C(F)(F)F)cc1` [Compound 3, 4-[[4′-tert-Butyl-3′-(4″-trifluoromethyl)phenoxy]phenylethynyl]benzoic Acid], the results for the equilibrium dissociation constant (Kd) at RARα, at RARβ and on RARγ were 90 nM, 44 nM and 102 nM, respectively.
On the same counts, the results for `CC(C)(C)c1ccc(C#Cc2ccc(C(=O)O)c(F)c2)cc1Oc1ccc(C(F)(F)F)cc1` [Compound 4, 4-[[4′-tert-Butyl-3′-(4″-trifluoromethyl)phenoxy]phenylethynyl]-2-fluoro-benzoic Acid] are 17 nM, 14.5 nM and 59 nM.
For `Cc1ccc(Oc2cc(/C=C/c3ccc(C(=O)O)cc3)ccc2C(C)(C)C)cc1` [Compound 15, 4-[[4′-tert-Butyl-3′-(4″-methyl)phenoxy]phenylvinyl]benzoic Acid], the Kd – broadly, a measure of binding affinity in units of concentration – turned out to be 12.5 nM on RARα, 0.8 nM at RARβ and 33 nM on RARγ.
`CC(C)(C)c1ccc(C#Cc2ccc(C(=O)O)c(F)c2)cc1Oc1ccc(N=[N+]=[N-])cc1` [Compound 17, 4-[[4′-tert-Butyl-3′-(4″-azido)phenoxy]phenylethynyl]-2-fluoro-benzoic Acid]: the Kd on RARα is 20 nM; on RARβ, 24 nM; on RARγ, 18 nM.
As for `CC(C)(C)c1ccc(C#Cc2ccc(C(=O)O)c(F)c2)cc1Oc1ccc(I)cc1` [Compound 20, 4-[[4′-tert-Butyl-3′-(4″-iodo)phenoxy]phenylethynyl]-2-fluoro-benzoic Acid], the Kd on RARα worked out at 22.5 nM; on RARβ, 16 nM; on RARγ, 84 nM.
For `CC(C)(C)c1ccc(/C=C/c2ccc(C(=O)O)cc2)cc1Oc1ccc(C(F)(F)F)cc1` [Compound 22, 4-[[4′-tert-Butyl-3′-(4″-trifluoromethyl)phenoxy]vinyl]benzoic Acid], the results for the Kd on RARα, at RARβ and on RARγ were 17 nM, 36 nM and 162 nM, respectively.
For the compound `CCc1ccc(Oc2cc(C#Cc3ccc(C(=O)O)c(F)c3)ccc2C(C)(C)C)cc1` [Compound 25, 4-[[4′-tert-Butyl-3′-(4″-ethyl)phenoxy]phenylethynyl]-2-fluoro-benzoic Acid], the figures for the Kd at RARα, on RARβ and on RARγ were 12 nM, 9 nM and 22.5 nM, respectively.
Take `Cc1ccc(Oc2cc(C#Cc3ccc(C(=O)O)c(F)c3)ccc2C(C)(C)C)cc1` [Compound 26, 4-[[4′-tert-Butyl-3′-(4″-methyl)phenoxy]phenylethynyl]-2-fluoro-benzoic Acid]: the Kd on RARα was found to be 11 nM; on RARβ, 10 nM; on RARγ, 17 nM.
Regarding `Cc1ccc(Oc2cc(C#Cc3ccc(C(=O)O)cc3)ccc2C(C)(C)C)cc1` [Compound 30, 4-[[4′-tert-Butyl-3′-(4″-methyl)phenoxy]phenylethynyl]benzoic Acid], the Kd is 48 nM at RARα, 13 nM at RARβ and 41 nM on RARγ.
